Laboratory results reported in ChEMBL document CHEMBL6120986, “In silico inspired design of urea noscapine congeners as anticancer agents: Chemical synthesis and experimental evaluation using breast cancer cells and a xenograft mouse model” (Eur J Med Chem, 2025).
The source made the active and inactive calls. The rule behind the calls is not given here.

Key:
MCF7 [1] = test: Antiproliferative activity against human MCF7 cells assessed as inhibition of cell proliferation incubated for 72 hrs by SRB assay; type: functional, cell-based; conditions: MCF7, 72 h
MDA-MB-231 [2] = test: Antiproliferative activity against human MDA-MB-231 cells assessed as inhibition of cell proliferation incubated for 72 hrs by SRB assay; type: functional, cell-based; conditions: MDA-MB-231, 72 h
[3] = Cytotoxicty against HEK cells incubated for 72 hrs by SRB assay; type: toxicity, cell-based; conditions: human
Capra hircus = species: Capra hircus; test: Binding affinity to goat brain tubulin assessed as tryptophan fluorescence change incubated for 45 mins by tryptophan quenching assay; conditions: dose 50-200 µM
[4] = Binding affinity in goat brain tubulin assessed as equilibrium dissociation constant incubated for 45 mins by fluorescence titration method; parameters: species or system Capra hircus
MDA-MB-231 [5] = test: Inhibition of colony formation in human MDA-MB-231 cells incubated for 24 hrs by crystal violet staining based colony formation assay; type: functional, cell-based; conditions: dose 1-20 µM
MDA-MB-231 [6] = test: Induction of apoptosis in human MDA-MB-231 cells assessed as membrane blebbing at 6.65 uM (IC50) measured after 72 hrs by fluorescence microscopic analysis; type: functional, cell-based
MDA-MB-231 [7] = test: Induction of apoptosis in human MDA-MB-231 cells assessed as increase in fragmented nuclei at 6.65 uM (IC50) measured after 72 hrs by fluorescence microscopic analysis; type: functional, cell-based
MDA-MB-231 [8] = test: Induction of apoptosis in human MDA-MB-231 cells assessed as formation of apoptotic bodies at 6.65 uM (IC50) measured after 72 hrs by fluorescence microscopic analysis; type: functional, cell-based
MDA-MB-231 [9] = test: Induction of apoptosis in human MDA-MB-231 cells assessed as early apoptotic cells at 6.56 uM incubated for 72 hrs by Annexin/FITC based FACS analysis (reference value: 2%); type: functional
MDA-MB-231 [10] = test: Induction of apoptosis in human MDA-MB-231 cells assessed as late apoptotic cells at 6.56 uM incubated for 72 hrs by Annexin/FITC based FACS analysis (reference value: 3%); type: functional
MDA-MB-231 [11] = test: Induction of apoptosis in human MDA-MB-231 cells assessed as increase in TUNEL positive nuclei at 6.56 uM by TUNEL assay relative to control; type: functional, cell-based
MDA-MB-231 [12] = test: Induction of intracellular ROS generation in human MDA-MB-231 cells assessed as increase in fluorescence intensity at 6.56 uM incubated for 48 hrs by H2DCFDA fluorescence assay; type: functional, cell-based
MDA-MB-231 [13] = test: Induction of cell cycle arrest in human MDA-MB-231 cells assessed as increase in accumulation of cells at G2/M phase at 6.65 uM incubated for 72 hrs by PI staining based FACS analysis relative to control; type: functional
MDA-MB-231 [14] = test: Induction of cell cycle arrest in human MDA-MB-231 cells assessed as accumulation of hypodiploid cells at sub-G1 phase at 6.65 uM IC50 incubated for 72 hrs by FACS analysis; type: functional, cell-based
Mitochondrial membrane [15] = test: Induction of mitochondrial membrane potential loss in human MDA-MB-231 cells assessed as decrease in red fluorescence incubated for 48 hrs by JC-1 staining based fluorescence microscopic analysis; type: cell membranes
Mitochondrial membrane [16] = test: Induction of mitochondrial membrane potential loss in human MDA-MB-231 cells assessed as increase in blue fluorescence incubated for 48 hrs by […] staining based fluorescence microscopic analysis; type: cell membranes
Mitochondrial membrane [17] = test: Induction of mitochondrial membrane potential loss in human MDA-MB-231 cells assessed as increase in green fluorescence incubated for 48 hrs by rhodamine-123 staining based fluorescence microscopic analysis; type: cell membranes
MCF7 [18] = test: Antitumor activity against human MCF7 cells xenografted in BALB/c athymic mouse assessed as reduction in tumor volume at 150 mg/kg, po administrated for 30 days (reference value: 1.63 cm^3); type: functional; conditions: time 30 day
[19] = Toxicity in BALB/c athymic mouse xenografted with human MCF-7 cells assessed as change in body weight at 150 mg/kg, po administrated daily for 30 days; type: organism-based; conditions: in vivo, 720 h, time 30 day
[20] = Toxicity in BALB/c athymic mouse assessed as effect on hepatic lobules morphology at 150 mg/kg, po by Hematoxylin and eosin staining based analysis; type: organism-based; conditions: in vivo
[21] = Toxicity in BALB/c athymic mouse assessed as effect on glomeruli morphology at 150 mg/kg, po by Hematoxylin and eosin staining based analysis; type: organism-based; conditions: in vivo
[22] = Toxicity in BALB/c athymic mouse assessed as effect on proximal tubules morphology at 150 mg/kg, po by Hematoxylin and eosin staining based analysis; type: organism-based; conditions: in vivo
[23] = Toxicity in BALB/c athymic mouse assessed as effect on distal tubules morphology at 150 mg/kg, po by Hematoxylin and eosin staining based analysis; type: organism-based; conditions: in vivo
[24] = Toxicity in BALB/c athymic mouse assessed as effect on interstitium morphology at 150 mg/kg, po by Hematoxylin and eosin staining based analysis; type: organism-based; conditions: in vivo
[25] = Toxicity in BALB/c athymic mouse assessed as effect on blood arteries morphology at 150 mg/kg, po by Hematoxylin and eosin staining based analysis; type: organism-based; conditions: in vivo
[26] = Toxicity in BALB/c athymic mouse assessed as effect on cerebral cortex morphology at 150 mg/kg mg/kg, po by Hematoxylin and eosin staining based analysis; type: organism-based; conditions: in vivo
[27] = Toxicity in BALB/c athymic mouse assessed as effect on alveoli morphology at 150 mg/kg mg/kg, po by Hematoxylin and eosin staining based analysis; type: organism-based; conditions: in vivo
[28] = Toxicity in female BALB/c athymic mouse assessed as effect on bronchial morphology at 150 mg/kg, po by Hematoxylin and eosin staining based analysis; type: organism-based; conditions: in vivo
[29] = Toxicity in female BALB/c athymic mouse assessed as AST level at 150 mg/kg/day, po (reference value: 105.92 +/- 6.41 U/L); type: organism-based; conditions: in vivo
[30] = Toxicity in female BALB/c athymic mouse assessed as creatinine level at 150 mg/kg/day, po (reference value: 0.690 +/- 0.05 mg/dl); type: organism-based; conditions: in vivo
[31] = Toxicity in female BALB/c athymic mouse assessed as ALT level at 150 mg/kg/day, po (reference value: 29.79 +/- 3.15 U/L); type: organism-based; conditions: in vivo
[32] = Toxicity in female BALB/c athymic mouse assessed as ALK PHOS level at 150 mg/kg/day, po (reference value: 78.59 +/- 5.85 U/L); type: organism-based; conditions: in vivo
[33] = Toxicity in female BALB/c athymic mouse assessed as BUN level at 150 mg/kg/day, po (reference value: 10.19 +/- 2.68 mg/dl); type: organism-based; conditions: in vivo
[34] = Toxicity in female BALB/c athymic mouse assessed as bilirubin total level at 150 mg/kg/day, po (reference value: 0.673 +/- 0.01 mg/dl); type: organism-based; conditions: in vivo
[35] = Toxicity in female BALB/c athymic mouse assessed as bilirubin direct level at 150 mg/kg/day, po (reference value: 0.298 +/- 0.07 mg/dl); type: organism-based; conditions: in vivo
[36] = Toxicity in female BALB/c athymic mouse assessed as bilirubin indirect level at 150 mg/kg/day, po (reference value: 3.05 +/- 0.32 mg/dl); type: organism-based; conditions: in vivo
[37] = Toxicity in female BALB/c athymic mouse assessed as albumin level at 150 mg/kg/day, po (reference value: 6.31 +/- 0.41 g/dl); type: organism-based; conditions: in vivo
[38] = Toxicity in female BALB/c athymic mouse assessed as total protein level at 150 mg/kg/day, po (reference value: 6.88 +/- 0.15 g/dl); type: organism-based; conditions: in vivo
[39] = Toxicity in female BALB/c athymic mouse assessed as monocyte count at 150 mg/kg/day, po (reference value: 0.39 +/- 0.03 %); type: organism-based; conditions: in vivo
[40] = Toxicity in female BALB/c athymic mouse assessed as eosinophil count at 150 mg/kg/day, po (reference value: 0.84 +/- 0.04 %); type: organism-based; conditions: in vivo
[41] = Toxicity in female BALB/c athymic mouse assessed as glucose level at 150 mg/kg/day, po (reference value: 98.47 +/- 3.29 mg/dl); type: organism-based; conditions: in vivo
[42] = Toxicity in female BALB/c athymic mouse assessed as calcium level at 150 mg/kg/day, po (reference value: 8.73 +/- 0.10 mg/dl); type: organism-based; conditions: in vivo
[43] = Toxicity in female BALB/c athymic mouse assessed as sodium level at 150 mg/kg/day, po (reference value: 144.51 +/- 0.85 mEq/L); type: organism-based; conditions: in vivo
[44] = Toxicity in female BALB/c athymic mouse assessed as potassium level at 150 mg/kg/day, po (reference value: 3.30 +/- 0.83 mEq/L); type: organism-based; conditions: in vivo
[45] = Toxicity in female BALB/c athymic mouse assessed as Chlorine level at 150 mg/kg/day, po (reference value: 105.63 +/- 4.46 mEq/L); type: organism-based; conditions: in vivo
[46] = Toxicity in female BALB/c athymic mouse assessed as WBC count at 150 mg/kg/day, po (reference value: 4.50 +/- 2.20 10^3/uL); type: organism-based; conditions: in vivo
[47] = Toxicity in female BALB/c athymic mouse assessed as RBC count at 150 mg/kg/day, po (reference value: 5.84 +/- 0.30 10^6/uL); type: organism-based; conditions: in vivo
[48] = Toxicity in female BALB/c athymic mouse assessed as hemoglobin concentration at 150 mg/kg/day, po (reference value: 16.59 +/- 0.60 g/dl); type: organism-based; conditions: in vivo
[49] = Toxicity in female BALB/c athymic mouse assessed as hematocrit at 150 mg/kg/day, po (reference value: 41.34 +/- 0.30 %); type: organism-based; conditions: in vivo
[50] = Toxicity in female BALB/c athymic mouse assessed as mean corpuscular volume at 150 mg/kg/day, po (reference value: 53.06 +/- 0.06 fL); type: organism-based; conditions: in vivo
[51] = Toxicity in female BALB/c athymic mouse assessed as mean corpuscular hemoglobin measured per cell at 150 mg/kg/day, po (reference value: 28.62 +/- 0.08 pg/cell); type: organism-based; conditions: in vivo
[52] = Toxicity in female BALB/c athymic mouse assessed as mean corpuscular hemoglobin concentration at 150 mg/kg/day, po (reference value: 35.86 +/- 0.24 g/dl); type: organism-based; conditions: in vivo
[53] = Toxicity in female BALB/c athymic mouse assessed as platelet at 150 mg/kg/day, po (reference value: 95.11 +/- 7.23 10^3/uL); type: organism-based; conditions: in vivo

For `COc1ccc2c(c1OC)C(=O)O[C@@H]2[C@H]1c2c(c(NC(=O)Nc3cccc(C(C)=O)c3)c3c(c2OC)OCO3)CCN1C`, which IC50 (MCF7 [1]) is on record?
The IC50 was 29.5 µM.

What about the IC50 (MDA-MB-231 [2]) of the same compound?
The IC50 was 33.2 µM.

And the IC50 at 72 h [3]?
Its IC50 at 72 h is 306 µM.

Which results are given for `COc1ccc2c(c1OC)C(=O)O[C@@H]2[C@H]1c2c(c(NC(=O)Nc3ccc(Cl)cc3Cl)c3c(c2OC)OCO3)CCN1C`?
Activity (Capra hircus): Dose-dependent-effect; Kd [4]: 42 µM; IC50 (MCF7 [1]): 4.77 µM; IC50 (MDA-MB-231 [2]): 6.56 µM; IC50 at 72 h [3]: 338 µM; inhibition (MDA-MB-231 [5]): Dose-dependent-effect; Activity (MDA-MB-231 [6]): Active; Activity (MDA-MB-231 [7]): Active; Activity (MDA-MB-231 [8]): Active; Activity (MDA-MB-231 [9]): 22%; Activity (MDA-MB-231 [10]): 68%; Activity (MDA-MB-231 [11]): Active; Activity (MDA-MB-231 [12]): Active; Activity (MDA-MB-231 [13]): Active; Activity (MDA-MB-231 [14]): Active; Activity (Mitochondrial membrane [15]): Active; Activity (Mitochondrial membrane [16]): Active; Activity (Mitochondrial membrane [17]): Active; Activity (MCF7 [18]): 0.34 cm3; Activity [19]: Non-toxic; Activity [20]: Non-toxic; Activity [21]: Non-toxic; Activity [22]: Non-toxic; Activity [23]: Non-toxic; Activity [24]: Non-toxic; Activity [25]: Non-toxic; Activity [26]: Non-toxic; Activity [27]: Non-toxic; Activity [28]: Non-toxic; Activity [29]: 106.86 U/L; Activity [30]: 0.702 mg/dL; Activity [31]: 28.62 U/L; Activity [32]: 78.45 U/L; Activity [33]: 12.11 mg/dL; Activity [34]: 0.56 mg/dL; Activity [35]: 0.32 mg/dL; Activity [36]: 3.08 mg/dL; Activity [37]: 6.19 g/dL; Activity [38]: 6.56 g/dL; Activity [39]: 0.48%; Activity [40]: 0.9%; Activity [41]: 98.37 mg/dL; Activity [42]: 7.9 mg/dL; Activity [43]: 144.4 mEq/L; Activity [44]: 3.3 mEq/L; Activity [45]: 106.71 mEq/L; Activity [46]: 4.59 10^3 /uL; Activity [47]: 6.29 10^6 /uL; Activity [48]: 14.6 g/dL; Activity [49]: 39.29%; Activity [50]: 58.1 fL; Activity [51]: 29.7 pg; Activity [52]: 34.74 g/dL; Activity [53]: 89.07 10^3 /uL
